Article PMC11211441, “Distributable, metabolic PET reporting of tuberculosis” (Nature Communications, 2024)

Legend:
[1] = [19F]FDT in vivo stability in mice (plasma/urine LC-MS, 19F NMR); conditions: mice (n = 5), LC-MS and 19F-NMR
Description: For initial in vivo study, six white mice, CD1, male, weighing between 22–26 grams, were used. Two concentrations of [^19F]FDT (500 μM and 50 μM, final concentration in the blood) were injected into the mice, through the tail vein injection. Prior to injection, each mouse was pre-bled (100 μL) and control samples were obtained. […] Samples were spun at 13000 rpm (15871 x g) for 10 min and the supernatant (plasma) was used for further analysis. 200 μL of plasma sample was transferred into fresh 1.5 mL Eppendorf tube and diluted with equal amount of acetonitrile to precipitate out blood plasma protein and other macromolecules. Samples were further spun at 13000 rpm (15871 x g) for 5 min.
In order to determine [^19F]FDT metabolism in vivo, we assessed concentration vs time in two mammalian species: common marmosets and C57BL/6 mice. For marmosets weighing between 290.3–340.3 g, 20 mg of sterile-filtered FDT in PBS was injected IV (n = 3) and ~200 μL blood samples were taken from the femoral vein at 0 min, 5 min, 30 min, 60 min, 90 min and 180 min post injection. […]
A, B) 20 mg [19F]FDT was injected into marmosets (A, n=3 biological replicates, each measured in duplicate) and 5 mg FDT injected into mice (B, n=5 biological replicates, each measured in triplicate). […]
[19F]FDG was detected, consistent with the only low levels of metabolism seen with [18F]FDT in rabbits (see Figure S3G). […]

[2] = Single and repeat iv dose toxicity study in dogs; assay type: in vivo; conditions: beagle dogs, 100 x or 1000 x expected human dose iv
Description: For toxicity studies, 2 g of [^19F]-FDT was synthesized and tested for quality control as described above and in Figs.39 and shipped to a contract research organization. Toxicity studies were conducted by SRI International, Biosciences Division, Menlo Park, CA, USA in rats and dogs. The experimental design is described in Tables S10, S11, respectively.
To assess the toxicity associated with [^19F]-FDT in dogs, male and female Beagle dogs (5/sex) were given a daily iv injection of [^19F]-FDT at 0.4 mg/kg/day (100 times of human dose; Group 2) for 7 consecutive days, or a single iv administration of [^19F]-FDT at 0.4 or 4 mg/kg (100 and 1000 times of human dose in Groups 3 and 4, respectively) on Day 7. A control group (5/sex; Group 1), was given 7 days of vehicle (HEPES buffer, pH 7.5, 50 mM with MgCl2 7.5 mM), at an equivalent dose volume of 0.25 ml/kg on Days 1–7. Animals were sacrificed on Day 9 (3/sex/ group; main groups) or Day 21 (2/sex/group; recovery groups). The single dose administration for Groups 3–4 were initiated on Day 7 so that clinical pathology and necropsy occurred on the same calendar day for all Groups (1–4), thus allowing for sharing of vehicle control data for analysis of clinical pathology and necropsy results between the two dose regimens.

For `OC[C@H]1O[C@H](O[C@H]2O[C@H](CO)[C@@H](O)[C@H](O)[C@H]2F)[C@H](O)[C@@H](O)[C@@H]1O` [[^19F]FDT], the “degradation in plasma / in vivo” value [1] was “no detectable degradation”, the “degradation in plasma / in vivo” value ([1]; listed as [19F]FDT) was “no degradation” and the “adverse findings in any parameters measured” value [2] was “no adverse findings”.
